The text below walks through data of patent US20130158024A1, “TRICYCLIC NECROSTATIN COMPOUNDS” (priority 2005, published 2013).

Read-outs that look alike come from different tables or passages of the source.

The EC50 is the concentration needed to bring the measured effect to its halfway point. For orientation: melting point means the temperature of the solid-liquid transition.

For data set [1], the system named is FADD-deficient Jurkat T cells treated with TNF-α. The experiment in a line: Inhibition of necroptosis (CICD) in FADD-deficient Jurkat T cells treated with TNF-α, ATP-based viability. The data set is classed as cell-based, human. To be noted: for antinecroptotic (anti-CICD) activity, in words: FADD-deficient Jurkat cells, TNFα.
The mark [2] stands for this setting: Homo sapiens, Jurkat, 24 h, read-out: EC50 (μM) for inhibition of necroptosis.
Where [3] appears, read: 10 ng/mL human TNF-α, 24 hours, ATP-based viability, EC50 ± SD from at least two independent experiments, read-out: EC50 (μM) for inhibition of necroptosis.

On to `COc1ccc2c(c1)C1=NN(C(C)=O)[C@@H](c3ccc(OCc4ccccc4)cc3)[C@H]1CC2` (relative stereo) [Compound 174, (3R,3aR)-rel-2-acetyl-3,3a,4,5-tetrahydro-3-(4-benzyloxyphenyl)-8-methoxy-2H-benz[g]indazole], for which the “antinecroptotic (anti-CICD) activity, in words” value (“antinecroptotic” below) in data set [1] is reported as “detrimental to activity to varying degrees”. Besides, in data set [1] (setting [2]), the EC50 was above 100 µM.

On to `COc1ccc2c(c1)C1=NN(C(C)=O)[C@@H](c3ccc(SC)cc3)[C@H]1CC2` (relative stereo) [Compound 182, (3R,3aR)-rel-2-acetyl-3,3a,4,5-tetrahydro-3-(4-thiomethoxyphenyl)-8-methoxy-2H-benz[g]indazole], for which the EC50 in data set [1] (setting [3]) stood at 1.1 ± 0.69 µM. For the same compound, the “antinecroptotic” value in data set [1] is on record as “detrimental to activity to varying degrees”.

In the case of `COc1ccc([C@H]2[C@H]3CCc4ccc(OCc5ccccc5)cc4C3=NN2C(C)=O)cc1` (relative stereo) [Compound 181, (3R,3aR)-rel-2-acetyl-3,3a,4,5-tetrahydro-3-(4-methoxyphenyl)-8-benzyloxy-2H-benz[g]indazole], the “antinecroptotic” value in data set [1] is on record as “diminished activity”. Besides, in data set [1] (setting [2]), the EC50 was found to be 5 ± 0.7 µM.

With `CN1C(=O)N[C@H](Cc2c[nH]c3c(Cl)cccc23)C1=O` [R-7-Cl—O-Nec-1], in data set [1] (Homo sapiens, Jurkat FADD deficient cells treated with TNFα, read-out: EC50), the EC50 is 0.047 µM. Further, in data set [1] (enantiomers of 7-Cl—O-Nec-1), the “potency at inhibiting CICD relative to the (S)-enantiomer” value is reported as “about 4 times”.

`CC(=O)N1N=C2c3ccccc3CC[C@H]2[C@@H]1c1ccc(F)cc1` (relative stereo) [Compound 199, (3R,3aS)-rel-2-acetyl-3,3a,4,5-tetrahydro-3-(4-fluorophenyl)-2H-benz[g]indazole]: the melting point was in the range of 168 to 171 °C.

As for `CN1C(=O)C(Cc2c[nH]c3c(Cl)cccc23)NC1=S` (stereo not drawn) [Compound 7-Cl-Nec-1], the EC50 in data set [1] (Jurkat FADD deficient cells treated with TNFα, read-out: EC50) is 0.182 µM. Also, the “increase in activity relative to Nec-1” value in data set [1] (addition of a chlorine to the phenyl ring of Nec-1) is reported as “approximately 2.7 fold”.

Turning to `CCN1N=C2c3cc(OC)ccc3CC[C@@H]2[C@@H]1c1ccc(OC)cc1` (relative stereo) [Compound 213, (3R,3aR)-rel-2-ethyl-3,3a,4,5-tetrahydro-3-(4-methoxyphenyl)-8-methoxy-2H-benz[g]indazole], the “antinecroptotic” value in data set [1] is recorded as “complete loss of necroptosis inhibitory activity”. The EC50 in data set [1] (setting [2]) is above 100 µM.

Turning to `COc1ccc([C@H]2[C@@H]3CCc4ccccc4C3=NN2C(C)=O)cc1` (relative stereo) [Compound 201, (3R,3aS)-rel-2-acetyl-3,3a,4,5-tetrahydro-3-(4-methoxyphenyl)-2H-benz[g]indazole], the melting point lay within 260 to 262 °C.

For the compound `COc1ccc([C@H]2[C@@H]3CCc4ccc([N+](=O)[O-])cc4C3=NN2C(C)=O)cc1` (relative stereo) [Compound 168, (3R,3aS)-rel-2-acetyl-3,3a,4,5-tetrahydro-3-(4-methoxyphenyl)-8-nitro-2H-benz[g]indazole], in data set [1] (setting [2]), the EC50 is above 100 µM.

Turning to `COc1ccc([C@H]2[C@H]3CCc4ccc(OCCN5CCOCC5)cc4C3=NN2C(C)=O)cc1` (relative stereo) [Compound 183, (3R,3aR)-rel-2-acetyl-3,3a,4,5-tetrahydro-3-(4-methoxyphenyl)-8-(4-morpholino)ethoxy-2H-benz[g]indazole], the EC50 in data set [1] (setting [3]) was above 50 µM. Besides, in data set [1], the “antinecroptotic” value is listed as “diminished activity”.

In the case of `COc1ccc([C@H]2[C@H]3CCc4ccc(OC)cc4C3=NN2C(N)=O)cc1` (relative stereo) [Compound 153, (3R,3aR)-rel-2-carboxamide-3,3a,4,5-tetrahydro-3-(4-methoxyphenyl)-8-methoxy-2H-benz[g]indazole], in data set [1] (setting [3]), the 50% effective concentration (EC50) was 4.3 ± 2.9 µM.

Consider `COCC(=O)N1N=C2c3cc(OC)ccc3CC[C@@H]2[C@@H]1c1ccc(OC)cc1` (relative stereo) [Compound 158, (3R,3aR)-rel-2-methoxyacetyl-3,3a,4,5-tetrahydro-3-(4-methoxyphenyl)-8-methoxy-2H-benz[g]indazole], for which the EC50 in data set [1] (setting [3]) was found to be 0.44 ± 0.24 µM.

For the compound `COc1ccc([C@H]2[C@H]3C[C@H](N(C)C)c4ccc(OC)cc4C3=NN2C(C)=O)cc1` (relative stereo) [Compound 146, (3R,3aR,5S)-rel-2-acetyl-5-(N,N-dimethylamino)-3,3a,4,5-tetrahydro-3-(4-methoxyphenyl)-8-methoxy-2H-benz[g]indazole], the EC50 in data set [1] (setting [2]) turned out to be 5.1 ± 2.2 µM.

Consider `COc1ccc([C@H]2[C@H]3C[C@H](N)c4ccc(OC)cc4C3=NN2C(C)=O)cc1` (relative stereo) [Compound 145, (3R,3aR,5S)-rel-2-acetyl-5-amino-3,3a,4,5-tetrahydro-3-(4-methoxyphenyl)-8-methoxy-2H-benz[g]indazole], for which, in data set [1] (setting [2]), the EC50 was 1.2 ± 0.38 µM.

As for `COc1ccc([C@H]2[C@H]3CCc4ccc(OC)cc4C3=NN2C(N)=S)cc1` (relative stereo) [Compound 152, (3R,3aR)-rel-2-carbothioamide-3,3a,4,5-tetrahydro-3-(4-methoxyphenyl)-8-methoxy-2H-benz[g]indazole], in data set [1] (setting [3]), the half-maximal effective concentration (EC50) amounted to 8.8 ± 3 µM.

As for `COc1ccc([C@H]2[C@@H]3CCc4ccc(F)cc4C3=NN2C(C)=O)cc1` (relative stereo) [Compound 170, (3R,3aS)-rel-2-acetyl-3,3a,4,5-tetrahydro-3-(4-methoxyphenyl)-8-fluoro-2H-benz[g]indazole], the EC50 in data set [1] (setting [2]) was found to be 2.7 ± 0.82 µM.

Consider `COc1ccc2c(c1)CC[C@H]1C2=NN(C(C)=O)[C@H]1c1ccc(F)cc1` (relative stereo) [Compound 163, (3R,3aR)-rel-2-acetyl-3,3a,4,5-tetrahydro-3-(4-fluorophenyl)-7-methoxy-2H-benz[g]indazole], for which the “antinecroptotic” value in data set [1] is on record as “loss of activity”. Further, the EC50 in data set [1] (setting [2]) was above 100 µM.

With `COc1ccc2c(c1)C1=NN(C(C)=O)[C@@H](c3ccc(O)cc3)[C@H]1CC2` (relative stereo) [Compound 175, (3R,3aR)-rel-2-acetyl-3,3a,4,5-tetrahydro-3-(4-hydroxyphenyl)-8-methoxy-2H-benz[g]indazole], the “antinecroptotic” value in data set [1] is listed as “detrimental to activity to varying degrees”. Further, in data set [1] (setting [2]), the EC50 is 5.9 ± 1.4 µM.

Turning to `COc1ccc([C@H]2[C@H]3CCc4ccc(OC)cc4C3=NN2C=O)cc1` (relative stereo) [Compound 147, (3R,3aR)-rel-2-formyl-3,3a,4,5-tetrahydro-3-(4-methoxyphenyl)-8-methoxy-2H-benz[g]indazole], the EC50 in data set [1] (setting [2]) was 0.92 ± 0.091 µM.

For the compound `COc1ccc([C@H]2[C@H]3CCc4ccc(F)cc4C3=NN2C(C)=O)cc1` (relative stereo) [Compound 171, (3R,3aR)-rel-2-acetyl-3,3a,4,5-tetrahydro-3-(4-methoxyphenyl)-8-fluoro-2H-benz[g]indazole], the “antinecroptotic” value in data set [1] is reported as “tolerated”. Further, the EC50 in data set [1] (setting [2]) is 0.28 ± 0.032 µM.

Consider `COc1ccc2c(c1)C1=NN(C(C)=O)[C@@H](c3ccc(O[N+](=O)[O-])cc3)[C@H]1CC2` (relative stereo) [Compound 172, (3R,3aR)-rel-2-acetyl-3,3a,4,5-tetrahydro-3-(4-nitroxyphenyl)-8-methoxy-2H-benz[g]indazole], for which the EC50 in data set [1] (setting [2]) turned out to be 1.8 ± 0.38 µM.

As for `COc1ccc2c(c1)CC[C@@H]1C2=NN(C(C)=O)[C@H]1c1ccc(F)cc1` (relative stereo) [Compound 162, (3R,3aS)-rel-2-acetyl-3,3a,4,5-tetrahydro-3-(4-fluorophenyl)-7-methoxy-2H-benz[g]indazole], the EC50 in data set [1] (setting [2]) is above 100 µM.

For `CC(=O)N1N=C2c3cc(O)ccc3CC[C@@H]2[C@@H]1c1ccc(O)cc1` (relative stereo) [Compound 176, (3R,3aR)-rel-2-acetyl-3,3a,4,5-tetrahydro-3-(4-hydroxyphenyl)-8-hydroxy-2H-benz[g]indazole], the EC50 in data set [1] (setting [2]) is above 100 µM.

For `COc1ccc([C@H]2[C@H]3CCc4cccc(OC)c4C3=NN2C(C)=O)cc1` (relative stereo) [Compound 180, (3R,3aR)-rel-2-acetyl-3,3a,4,5-tetrahydro-3-(4-methoxyphenyl)-9-methoxy-2H-benz[g]indazole], the “antinecroptotic” value in data set [1] was “loss of activity”. Also, the EC50 in data set [1] (setting [2]) is above 50 µM.

Regarding `COc1ccc([C@H]2[C@H]3CCc4ccc(OC)cc4C3=NN2C(=O)COC(C)=O)cc1` (relative stereo) [Compound 150, (3R,3aR)-rel-2-acetoxyacetyl-3,3a,4,5-tetrahydro-3-(4-methoxyphenyl)-8-methoxy-2H-benz[g]indazole], the EC50 in data set [1] (setting [3]) was found to be 3.1 ± 0.17 µM.

In the case of `COc1ccc([C@H]2[C@H]3CCc4ccc([N+](=O)[O-])cc4C3=NN2C(C)=O)cc1` (relative stereo) [Compound 169, (3R,3aR)-rel-2-acetyl-3,3a,4,5-tetrahydro-3-(4-methoxyphenyl)-8-nitro-2H-benz[g]indazole], in data set [1], the “antinecroptotic” value is recorded as “diminished inhibitory activity”. For the same compound, the 50% effective concentration (EC50) in data set [1] (setting [2]) is 3.5 ± 1.5 µM.

On to `COc1ccc([C@H]2[C@H]3CCc4c(OC)cccc4C3=NN2C(C)=O)cc1` (relative stereo) [Compound 173, (3R,3aR)-rel-2-acetyl-3,3a,4,5-tetrahydro-3-(4-methoxyphenyl)-6-methoxy-2H-benz[g]indazole], for which the “antinecroptotic” value in data set [1] was “loss of activity”. Moreover, in data set [1] (setting [2]), the EC50 was above 100 µM.

As to `CNC(=S)N1N=C2c3cc(OC)ccc3CC[C@@H]2[C@@H]1c1ccc(OC)cc1` (relative stereo) [Compound 154, (3R,3aR)-rel-2-carbothioamide-3,3a,4,5-tetrahydro-3-(4-methoxyphenyl)-8-methoxy-N-methyl-2H-benz[g]indazole], the EC50 in data set [1] (setting [3]) came out at 7.9 ± 2 µM.

For the compound `COc1ccc([C@H]2[C@H]3CCc4ccc(OC)cc4C3=NN2C(=N)N)cc1` (relative stereo) [Compound 157, (3R,3aR)-rel-2-carboxamidine-3,3a,4,5-tetrahydro-3-(4-methoxyphenyl)-8-methoxy-2H-benz[g]indazole], the EC50 in data set [1] (setting [3]) is above 100 µM.
